“And” between values parts separate entries of the source, which are not always exact repeats. Equal entries are not always repeated. Structures can show the parent of a compound that is named as a salt. Where two headings read alike, the source gives them in different places.
What was measured:
[1] = test system: HEK293T cells; test: Cell viability (alamarBlue) on HEK293T cells; conditions: replicate data
[2] = molecular target: T1, SARS-CoV-2 Mpro (Severe acute respiratory syndrome coronavirus 2, UniProt P0DTC1); test: In-cell protease (ICP) assay, Mpro construct in HEK293T cells; format: cell-based; conditions: for remaining activity at 1 µM / remaining activity at 10 µM: HEK-293T; for remaining activity at 1 µM: read-out: mEmerald-NLS nuclear/total fluorescence (protease activity) normalized to untreated cells, 1 μM, HEK293T, Fig 2A replicate data, untreated control = 100; for remaining activity at 10 µM: read-out: mEmerald-NLS nuclear/total fluorescence (protease activity) normalized to untreated cells, 10 μM, HEK293T, Fig 2A replicate data, untreated control = 100
[3] = test system: SARS-CoV-2; format: cell-based; conditions: Huh-7.5, MOI 0.1, 24 h.p.i., anti-N IFA
[4] = molecular target: T1, SARS-CoV-2 Mpro; test: biochemical; conditions: for inhibition of Mpro protease activity: FRET assay
Experimental: A cleavage site is indicated by an asterisk. […] N = 3, values are represented as mean ± SE.
For the determination of half-maximal inhibitory concentrations (IC50) of MG-101 and GC376 (BPS Bioscience), a synthetic substrate of Mpro containing FRET pair and Mpro nsp4/5 cleavage site (indicated by an arrow, Dabcyl-KTSAVLQ ↓ SGFRKME-Edans) (BPS Bioscience) was used for the FRET-based cleavage assay. The assay was performed in 96-well, black, flat-bottomed microtiter plates (Greiner Bio-One, Germany) with a final volume of 50 μl. Mpro (a final concentration of 200 nM) was pre-incubated for 1 h at 22 °C with compounds at different concentrations in the assay buffer (20 mM HEPES (pH 7), 0.5 mM EDTA, 1 mM dithiothreitol, 5% glycerol). The substrate was then added at a final concentration of 10 μM to the reaction mixture and the reaction was incubated for 4 h at 22 °C. The readings for the different concentrations of the inhibitor compounds incubated with the substrate without Mpro were measured as a blank. The fluorescence signals (excitation/emission, 360 nm/460 nm) of released EDANS were measured using Infinite 200 PRO multimode plate reader (Tecan, USA). The results were plotted as dose inhibition curves using nonlinear regression with a variable slope to determine the IC50 values of inhibitor compounds using GraphPad Prism 9.0.

[5] = test system: SARS-CoV-2; test: microbe, parasite or virus in culture; format: cell-based; conditions: for EC50: Severe acute respiratory syndrome coronavirus 2, Huh7.5, Huh-7.5 cells
[6] = Cytotoxicity assay (alamarBlue) on Huh-7.5 cells; conditions: human, CC50, Huh-7.5 cells, alamarBlue reduction
[7] = test system: SARS-CoV-2; conditions: Vero E6 cells; cited from earlier work
[8] = in vitro; conditions: human
[9] = test system: SARS-CoV-2; test: qRT-PCR of viral RNA molecules in infected Huh-7.5 cells; format: cell-based; conditions: Huh-7.5, 24 h.p.i.
Experimental: We tested the effect of selected compounds in inhibiting the spread of SARS-CoV-2 on cell monolayers was tested by immunofluorescence assay (IFA) (Fig. 5a). From the percentage of inhibition (Fig. 5b), we calculated that the PLpro inhibitors Sitagliptin and Daclastavir inhibited virus spread by 75% and 70%, respectively, compared to untreated controls (Fig. 5b). […] We next determined whether the reduction in virus spread in the inhibitor-treated cells correlates with virus replication. We extracted total RNA from infected cells treated with inhibitors and quantified the number of viral RNA molecules by quantitative real-time polymerase chain reaction (qRT-PCR) (Fig. 5c). […] However, the reduction in the number of viral RNA molecules was lower for BMS-707035 (1-log reduction), Atazanavir (0.5-log), and Lomibuvir (0.5-log).
Fig. 5 Effect of compounds selected from ICP assay on SARS-CoV-2 replication. a Huh-7.5 cells positive for SARS-CoV-2 determined by immunofluorescence assay. Huh-7.5 cells pre-treated for 24 h with inhibitors were infected with SARS-CoV-2 at an MOI of 0.1. At 24 h.p.i., cells were fixed with paraformaldehyde and probed with anti-N (SARS CoV-2 nucleocapsid) primary antibody and FITC-conjugated goat anti-rabbit secondary antibody (green, infected cells). Nuclei were stained with Hoechst stain and confocal images were acquired. b The ratio of infected to uninfected cells for each treatment was calculated using Nikon Elements software and normalized to untreated controls (n = 5). c Quantification of SARS-CoV-2 RNA molecules from infected cells treated with inhibitors as indicated (n = 3).
Huh-7.5 cells grown in DMEM in 6 well tissue culture plates were pre-treated with different concentrations of compounds for 24 h were infected with 0.1 MOI of SARS-CoV-2. After 1 h of infection, virus-containing media were replaced with fresh media-containing compounds, and the plates were incubated at 37 °C. Untreated cells were included in the experiment as controls. After 24 h, total RNA was extracted from the cells using a Zymopure Quick-RNA extraction kit. The number of viral RNA molecules in the extracted total RNA samples was determined by quantitative RT-PCR on a QuantStudio-3 machine (Applied BioSystems) using primers –Forward […] and Reverse […]. The Ct values obtained were used to calculate the number of RNA molecules using a standard curve of Ct versus RNA molecules.

[10] = molecular target: T2, SARS-CoV-2 PLpro (Severe acute respiratory syndrome coronavirus 2, UniProt P0DTC1); test: In vitro PLpro protease inhibition assay (Z-RLRGG-AMC); format: biochemical
[11] = test system: Mpro; conditions: read-out: IC50, reported value; cited from earlier work
[12] = test system: Huh-7.5 cells; test: Cytotoxicity assay (alamarBlue) on Huh-7.5 cells; conditions: Huh-7.5 cells, alamarBlue reduction
[13] = test system: SARS-CoV-2; test: Time of addition (pre-treatment) experiment in Huh-7.5 cells, plaque assay; format: cell-based; conditions: Huh-7.5, pretreatment
[14] = molecular target: T2, SARS-CoV-2 PLpro; test: cell-based; conditions: HEK-293T, read-out: mEmerald-NLS nuclear/total fluorescence (protease activity) normalized to untreated cells, 10 μM, HEK293T, Fig 2A replicate data, untreated control = 100
[15] = test system: COVID-19; design: method as in PMID 32994187; conditions: cited from earlier work
[16] = MOI 0.1, 24 h.p.i., plaque assay

Structure (SMILES) | % normalised alamar Blue reduction at 10μM [1] | remaining activity at 1 µM [2] [%] | remaining activity at 10 µM [2] [%] | inhibition of virus spread compared to untreated controls [3] | inhibition of Mpro protease activity [4] | EC50 [5, 16] [nM] | also measured
C=C[C@@H]1C[C@]1(NC(=O)[C@@H]1C[C@@H](Oc2ncc(OC)c3ccc(Cl)cc23)CN1C(=O)[C@@H](NC(=O)OC(C)(C)C)C(C)(C)C)C(=O)NS(=O)(=O)C1CC1 [Asunaprevir] | 78% and 88% and 90% | 88 | 69 | – | – | – | –
COC(=O)N[C@H](C(=O)N[C@@H](Cc1ccccc1)[C@@H](O)CN(Cc1ccc(-c2ccccn2)cc1)NC(=O)[C@@H](NC(=O)OC)C(C)(C)C)C(C)(C)C [Atazanavir] | – | 89 | 50 | below 50% | not found to be effectively inhibiting the Mpro protease activity | 60 | % normalised alamar Blue reduction at 10μM ([1]; listed as Atazanavir sulfate): 89% and 95.2% and 90.5%; CC50 at 24 h [6]: 77200 nM; EC50 [7]: 500 ± 80 nM
Cn1c(N2CCCCS2(=O)=O)nc(C(=O)NCc2ccc(F)cc2)c(O)c1=O [BMS-707035] | – | 79 | 60 | 81% | not found to be effectively inhibiting the Mpro protease activity | – | EC50 [5]: 270 nM; CC50 at 24 h ([8]; CC50): 42200 nM
CC(C)(C)NC(=O)N[C@H](C(=O)N1C[C@H]2[C@@H]([C@H]1C(=O)NC(CC1CCC1)C(=O)C(N)=O)C2(C)C)C(C)(C)C (stereo partly shown) [Bocoprevir] | – | 71 | 69 | – | – | – | –
COC(=O)N[C@H](C(=O)N1CCC[C@H]1c1nc(-c2ccc(-c3ccc(-c4c[nH]c([C@@H]5CCCN5C(=O)[C@@H](NC(=O)OC)C(C)C)n4)cc3)cc2)c[nH]1)C(C)C [Daclastavir HCl] | – | – | – | 70% | – | 1590 | % normalised alamar Blue reduction at 10μM ([1]; listed as Daclatasvir dihydrochloride): 89% and 80% and 96%; reduction in the number of viral RNA molecules compared to untreated cells [9]: 2 log; CC50 at 24 h [6]: 32100 nM; IC50 [10]: 1840 ± 256 nM
COC(=O)N[C@H](C(=O)N1CCC[C@H]1c1nc(-c2ccc(-c3ccc(-c4c[nH]c([C@@H]5CCCN5C(=O)[C@@H](NC(=O)OC)C(C)C)n4)cc3)cc2)c[nH]1)C(C)C [Daclatasvir (BMS-790052)] | 80% and 88% and 75% | – | – | – | – | – | –
CC(C)CN(C[C@@H](O)[C@H](Cc1ccccc1)NC(=O)O[C@H]1CO[C@H]2OCC[C@H]21)S(=O)(=O)c1ccc(N)cc1 [Darunavir] | 80% and 97% and 79% | – | – | – | – | – | –
CC(C)C[C@H](NC(=O)OCc1ccccc1)C(=O)N[C@@H](CC1CCNC1=O)C(O)S(=O)(=O)O (stereo partly shown) [GC376] | – | – | – | – | – | – | IC50 [11]: 190 nM; IC50 [4]: 130 ± 70 nM
COc1cc(O)c(CC=C(C)C)c2c1C(=O)CC(c1ccc(O)cc1)O2 (stereo not shown) [Isoxanthohumol] | – | 90 | 60 | – | – | – | –
CC(C)(C)C#Cc1cc(N(C(=O)[C@H]2CC[C@H](C)CC2)[C@H]2CC[C@H](O)CC2)c(C(=O)O)s1 [Lomibuvir] | – | 90 | 44 | below 50% | not found to be effectively inhibiting the Mpro protease activity | 70 | CC50 at 24 h ([8]; CC50): 48000 nM
Cc1cccc(C)c1OCC(=O)N[C@@H](Cc1ccccc1)[C@@H](O)C[C@H](Cc1ccccc1)NC(=O)[C@H](C(C)C)N1CCCNC1=O [Lopinavir] | – | 80 | 65 | – | – | – | –
Cc1c(O)cccc1C(=O)N[C@@H](CSc1ccccc1)[C@H](O)CN1C[C@H]2CCCC[C@H]2C[C@H]1C(=O)NC(C)(C)C [Nelfinavir mesylate] | 88% and 75.67% and 90% | 60 | 45 | 95% | not found to be effectively inhibiting the Mpro protease activity | 70 | reduction in the number of viral RNA molecules compared to untreated cells [9]: approximately 3 log; reduction in the number of viral RNA molecules compared to untreated cells ([9]; listed as Nelfinavir): 3 log; virus titer at 24 h.p.i., Fig S2B data ([5]; 1 µM final concentration (each), Huh-7.5, replicates): 80000 and 64000 and 88000; CC50 at 24 h [6]: 26000 nM; CC50 [12]: 26000 nM; effect of pre-treatment on virus production / entry [13]: only minimal effect on virus production
N[C@@H](CC(=O)N1CCn2c(nnc2C(F)(F)F)C1)Cc1cc(F)c(F)cc1F [Sitagliptin] | – | – | – | 75% | – | 320 | remaining activity at 10 µM [14]: 56%; mortality rate (deceased patients) ([15]; added to standard care, vs. 37% with standard of care): 18%; improved clinical outcomes (improved patients) ([15]; vs. 38% with standard of care): 60%; hospital discharges (discharged patients) ([15]; vs. 89 with standard of care): 120; reduction in the number of viral RNA molecules compared to untreated cells [9]: 2 log; effect on Mpro activity in cells ([2]; ICP assay): does not inhibit Mpro activity; Selectivity index SI = CC50/EC50 [5]: 67; virus titer at 24 h.p.i., Fig 6A data ([5]; single drug 1 μM, Huh 7.5, replicates): 56000 and 64000 and 40000; CC50 [12]: 22000 nM; CC50 at 24 h ([8]; CC50, Huh-7.5 cells, alamarBlue reduction): 21600 nM; IC50 ([10]; PLpro 300 nM, Z-RLRGG-AMC 25 μM, read-out: IC50): 1140 ± 190 nM

— publication PMC8881501, “Identification of SARS-CoV-2 inhibitors targeting Mpro and PLpro using in-cell-protease assay” (Communications Biology, 2022)
